Reference: US5354772A, “Indole analogs of mevalonolactone and derivatives thereof” (Sandoz Pharm. Corp., priority 1993, dated 1994)
Where two headings read alike, the source gives them in different places.

Columns and labels:
sterol synthesis = assay: Test C. In Vivo Cholesterol Biosynthesis Inhibition Test; design: species or system rat; settings: for ED50: Rattus norvegicus, read-out: ED50 (inhibition of sterol synthesis)
From the text: Test C. In Vivo Cholesterol Biosynthesis Inhibition Test In vivo studies utilize male Wistar Royal Hart rats weighing 150±20 g. which have been kept for 7-10 days on an altered light cycle (6:30 A.M.-6:30 P.M. dark) housed two per cage and fed powdered Purina Rat Chow and water ad libitum. […] Controls receive vehicle alone. […] Two hours after mid-dark, blood samples are obtained under sodium hexobarbitol anesthesia and the serum separated by centrifugation. […] Inhibition of sterol synthesis is calculated from the reduction in the nCi of sterols formed from test groups compared to controls.

HMG-CoA reductase = biological target: T1, HMG-CoA reductase (Rattus norvegicus, UniProt P51639); assay: Test A. In Vitro Microsomal Assay of HMG-CoA Reductase Inhibition; format: biochemical; settings: rat liver microsomes, male Sprague-Dawley rats; read-out: IC50 (50% inhibition of HMG-CoA reductase activity)
T1 construct: the microsomes are the source of the HMG-CoA reductase enzyme; from tissue; host or cells: liver microsomes, male Sprague-Dawley rats (150-225 g)
T1 sequence (P51639 1-887): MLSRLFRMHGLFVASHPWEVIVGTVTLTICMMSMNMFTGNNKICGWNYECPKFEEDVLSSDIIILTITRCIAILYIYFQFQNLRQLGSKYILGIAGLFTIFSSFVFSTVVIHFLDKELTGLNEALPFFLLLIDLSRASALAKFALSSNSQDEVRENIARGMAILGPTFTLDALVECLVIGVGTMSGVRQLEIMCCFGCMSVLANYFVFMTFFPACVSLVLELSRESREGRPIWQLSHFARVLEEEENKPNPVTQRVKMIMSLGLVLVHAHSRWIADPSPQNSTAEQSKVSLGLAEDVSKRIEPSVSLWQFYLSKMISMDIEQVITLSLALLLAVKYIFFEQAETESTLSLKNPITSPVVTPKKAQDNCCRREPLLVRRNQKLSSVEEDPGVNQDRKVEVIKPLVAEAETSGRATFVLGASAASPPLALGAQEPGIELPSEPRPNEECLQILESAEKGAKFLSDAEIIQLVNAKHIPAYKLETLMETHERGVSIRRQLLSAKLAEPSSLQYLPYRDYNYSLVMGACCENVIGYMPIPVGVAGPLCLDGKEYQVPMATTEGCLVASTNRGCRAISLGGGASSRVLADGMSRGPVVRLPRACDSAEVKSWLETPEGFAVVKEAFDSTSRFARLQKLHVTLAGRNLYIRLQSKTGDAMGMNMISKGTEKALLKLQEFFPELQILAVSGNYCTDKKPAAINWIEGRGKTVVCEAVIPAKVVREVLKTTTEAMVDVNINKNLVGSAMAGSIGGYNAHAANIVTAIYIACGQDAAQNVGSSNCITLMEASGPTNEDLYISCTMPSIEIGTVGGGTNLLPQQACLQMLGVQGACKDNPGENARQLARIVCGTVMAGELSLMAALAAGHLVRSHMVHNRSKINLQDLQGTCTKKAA
Procedure: Test A. In Vitro Microsomal Assay of HMG-CoA Reductase Inhibition:
200 μl. aliquots (1.08-1.50 mg./ml.) of rat liver microsomal suspensions, freshly prepared from male Sprague-Dawley rats (150-225 g. body weight), in Buffer A with 10 mmol. dithiothreitol are incubated with 10 μl. of a solution of the test substance in dimethylacetamide and assayed for HMG-CoA reductase activity as described in Ackerman et al., J. Lipid Res. 18, 408-413 (1977). In the assay the microsomes are the source of the HMG-CoA reductase enzyme which catalyzes the reduction of HMG-CoA to mevalonate. The assay employs a chloroform extraction to separate the product, [^14 C]mevalonolactone, formed by the HMG-CoA reductase reaction from the substrate, [^14 C]HMG-CoA. [^3 H]mevalonolactoneis added as an internal reference. Inhibition of HMG-CoA reductase is calculated from the decrease in specific activity [^14 C/^3 H]mevalonate) of test groups compared to controls.
IC50 is the concentration of the test substance in the assay system
calculated to produce a 50% inhibition of HMG-CoA reductase activity (Test
A) or sterol biosynthesis (Test B) .

[1] = system: Fu5AH rat hepatoma cell line; assay: Test B. In Vitro Cell Culture Cholesterol Biosynthesis Screen; format: cell-based; settings: Fu5AH cells, 3 hours; for IC50: [14C]acetate incorporation, read-out: IC50 (50% inhibition of sterol biosynthesis)
Procedure: The cell culture is prepared as follows: Stock monolayer cultures of the Fu5AH rat hepatoma cell line (originally obtained from G. Rothblat; see Rothblat, Lipids 9, 526-535 (1974)) are routinely maintained in Eagle's Minimum Essential Medium (EMEM) supplemented with 10% fetal bovine serum (FBS) in 75 cm.^2 tissue culture flasks. For these studies, when the cultures reach confluence, they are removed by mild enzymatic treatment with 0.25% trypsin in Hanks' balanced salt solution (without calcium and magnesium). After centrifugation of the cell suspension and aspiration of the enzymatic solution, the cell pellet is resuspended in an appropriate volume of media for seeding into 60 mm. tissue culture dishes. The cultures are incubated at 37° C. in an atmosphere of high humidity and 5% carbon dioxide. When the cultures are confluent (approximately 5 days), they are ready for use. The culture media is aspirated from the dishes and replaced with 3 ml. of EMEM supplemented with 5 mg./ml. of delipidized serum protein (DLSP) prepared by the method of Rothblat et al., In Vitro 12, 554-557 (1976). […] Enhanced 3-hydroxy-3-methylglutaryl Coenzyme A reductase (HMG-CoA reductase) activity is measurable in the cells in response to the lack of exogenous sterol. Following approximately 24 hours incubation at 37° C. in the DLSP supplemented media, the assay is initiated by the addition of 3 μCi of [^14 C]acetate and the test substance solubilized in dimethylsulfoxide (DMSO) or distilled water. Solvent controls and compactin-treated controls are always prepared. Triplicate 60 mm. tissue culture dishes are run for each group. After 3 hours incubation at 37° C., the cultures are examined microscopically using an inverted phase contrast microscope. Notations are made of any morphological changes which may have occurred in the cultures. The media is aspirated and the cell layer is gently washed twice with 0.9% sodium chloride solution (saline). The cell layer is then harvested in 3 ml. of 0.9% saline by gentle scraping with a rubber policeman and transferred to a clean glass tube with Teflon lined cap. The dishes are rinsed with 3 ml. of 0.9% saline and rescraped, and the cells are combined with the first harvest. The tubes are centrifuged at 1500 r.p.m. for 10 minutes in an IEC PR-J centrifuge, and the supernatant is aspirated.
The cells are then extracted as follows: One ml. of 100% ethanol is added to the cell pellet followed by sonication for 10 seconds with a "LO" setting of 50 on a Bronwell Biosonik IV. One hundred μl. are taken for protein determination. One ml. of 15% potassium hydroxide (KOH) is added, and the samples are thoroughly vortexed. Saponification is accomplished by heating the ethanol-KOH treated samples at 60° C. for 60 minutes in a water bath. Following dilution of the samples with 2 ml. of distilled water, they are extracted three times with 7 ml. of petroleum ether. The petroleum ether extracts are then washed three times with 2 ml. of distilled water and finally taken to dryness under a stream of nitrogen.
The obtained samples are then analyzed by thin layer chromatography (TLC) as follows: Residues from the petroleum ether extraction are taken up in a small volume of hexane and spotted on silica gel 60 TLC plates (E. Merck). Development of the plates is carried out in a three phase solvent system consisting of 150 parts by volume hexane: 50 parts by volume diethyl ether: 5 parts by volume glacial acetic acid.
Visualization is accomplished in an iodine vapor chamber. The plates are divided into five sections such that each section contains the molecules having the following approximate Rf values: section 1- 0-0.4, section 2- 0.4-0.55, section 3- 0.55-0.7, section 4- 0.7-0.9 and section 5- 0.9-1.0. Section 2 contains the non-saponifiable sterols. The five sections of the TLC plates are scraped into scintillation vials.

[2] = male Wistar Royal Hart rats, serum [14C] sterols

IC50 (HMG-CoA reductase)	IC50 [1]	SMILES	ED50 (sterol synthesis; [2])	further results
3 µM	0.62 µM	Cn1c(/C=C/[C@@H]2C[C@@H](O)CC(=O)O2)c(-c2ccc(F)cc2)c2ccccc21 (relative stereo) [Example 4 (a), (E)-Trans-6-[2'-[3"-(4'"-fluorophenyl)-1"-methylindol-2"-yl]ethenyl]-4-hydroxy-3,4,5,6-tetrahydro-2H-pyran-2-one]	7 mg/kg	–
0.005 µM	–	Cc1cc(C)cc(-c2c(/C=C/[C@@H](O)C[C@@H](O)CC(=O)O)n(C(C)C)c3ccccc23)c1 (relative stereo) [Example 14D, Sodium erythro-(±)-(E)-3,5-dihydroxy-7-[3'-(3",5"-dimethylphenyl)-1'-(1"-methylethyl)indol-2'-yl]hept-6-enoate]	0.16 mg/kg	–
464 µM	–	Cn1c(/C=C/[C@H](O)C[C@@H](O)CC(=O)O)c(-c2ccc(F)cc2)c2cccc(OCc3ccccc3)c21 (relative stereo) [Example 54]	–	–
0.012 µM	0.03 µM	Cc1cc(C)c2c(-c3ccc(F)cc3)c(/C=C/[C@@H](O)C[C@@H](O)CC(=O)O)n(C(C)C)c2c1 (relative stereo) [Example 64]	0.66 mg/kg	–
9.3 µM	–	Cn1c(CC[C@@H]2C[C@@H](O)CC(=O)O2)c(-c2ccc(F)cc2)c2ccccc21 (relative stereo) [Example 89]	–	–
> 1000 µM	–	Cn1c(/C=C/[C@H]2C[C@@H](O)CC(=O)O2)c(-c2ccc(F)cc2)c2cccc(OCc3ccccc3)c21 (relative stereo) [Example 102]	–	–
–	0.19 µM	CCn1c(/C=C/[C@H]2C[C@@H](O)CC(=O)O2)c(-c2ccc(F)cc2)c2ccccc21 (relative stereo) [Example 111]	–	–
0.03 µM	–	Cc1cc(-c2c(/C=C/[C@H]3C[C@@H](O)CC(=O)O3)n(C(C)C)c3ccccc23)ccc1F (relative stereo) [Example 113]	0.51 mg/kg	–
1.3 µM	1.5 µM	Cc1c(/C=C/[C@@H]2C[C@@H](O)CC(=O)O2)n(-c2ccccc2)c2ccccc12 (relative stereo) [Example 142]	6.1 mg/kg	–
0.77 µM	0.06 µM	CC[C@H](C)C(=O)O[C@H]1CCC=C2C=C[C@H](C)[C@H](CC[C@@H]3C[C@@H](O)CC(=O)O3)[C@H]21 [Compactin, reference compound]	3.5 mg/kg	–
1.7 µM	0.8 µM	COC(=O)CC(O)CC(O)/C=C/c1c(-c2ccc(F)cc2)c2ccccc2n1C (stereo not drawn) [Example 1, Methyl (E)-3,5-dihydroxy-7-[3'-(4"-fluorophenyl)-1'-methylindol-2'-yl]hept-6-enoate]	6.2 mg/kg	–
1.66 µM	0.8 µM	Cn1c(/C=C/C2CC(O)CC(=O)O2)c(-c2ccc(F)cc2)c2ccccc21 (stereo not drawn) [Example 3, (E)-6-[2'-[3"-(4'"-Fluorophenyl)-1"-methylindol-2"-yl]ethenyl]-4-hydroxy-3,4,5,6-tetrahydro-2H-pyran-2-one]	> 10 mg/kg	–
1.7 µM	0.42 µM	Cn1c(/C=C/[C@@H]2C[C@@H](O)CC(=O)O2)c(-c2ccc(F)cc2)c2ccccc21 [Example 10, (E)-Trans-6S-[2'-[3"-(4'"-fluorophenyl)-1"-methylindol-2"-yl]ethenyl]-4R-hydroxy-3,4,5,6-tetrahydro-2H-pyran-2-one]	–	percentage change of sterol synthesis (sterol synthesis; at 4 mg./kg., male Wistar Royal Hart rats): -47%
9.1 µM	–	Cn1c(/C=C\[C@@H]2C[C@@H](O)CC(=O)O2)c(-c2ccc(F)cc2)c2ccccc21 [Example 12, (Z)-Trans-6S-[2'-[3"-(4'"-fluorophenyl)-1"-methylindol-2"-yl]ethenyl]-4R-hydroxy-3,4,5,6-tetrahydro-2H-pyran-2-one]	–	inhibition at 1 µM ([1]; at 1 μmolar, read-out: percentage change (%Δ) of sterol biosynthesis): 16%
–	0.2 µM	CCOC(=O)CC(O)CC(O)/C=C/c1c(-c2ccc(F)cc2)c2ccc(OCc3ccccc3)cc2n1C (stereo not drawn) [Example 21]	12.1 mg/kg	–
0.09 µM	0.6 µM	Cn1c(/C=C/C(O)CC(O)CC(=O)O)c(-c2ccc(F)cc2)c2ccc(OCc3ccccc3)cc21 (stereo not drawn) [Example 23]	–	–
9.6 µM	0.74 µM	CCOC(=O)CC(O)CC(O)/C=C/c1c(-c2ccc(F)cc2)c2cc(Cl)ccc2n1C (stereo not drawn) [Example 43]	–	–
0.12 µM	–	CCOC(=O)CC(O)CC(O)/C=C/c1c(-c2ccc(F)cc2)c2ccccc2n1CC (stereo not drawn) [Example 60]	0.87 mg/kg	–
0.0054 µM	–	CCOC(=O)CC(O)CC(O)/C=C/c1c(-c2ccc(F)cc2)c2ccc(OCc3ccccc3)cc2n1C(C)C (stereo not drawn) [Example 75]	–	–
1.62 µM	–	CCOC(=O)CC(O)CC(O)/C=C/c1c(C)c2ccccc2n1-c1ccccc1 (stereo not drawn) [Example 132]	–	percentage change of sterol synthesis (sterol synthesis; at 10 mg./kg., male Wistar Royal Hart rats): -35%; inhibition at 10 µM ([1]; at 10 μmolar, read-out: percentage change (%Δ) of sterol biosynthesis): 71%
–	–	CCC(C)C(=O)OC1CC(C)C=C2C=CC(C)C(CCC3CC(O)CC(=O)O3)C21 (stereo not drawn) [Mevinolin, reference compound]	–	ED50 (sterol synthesis): 0.41 mg/kg

SMILES	IC50 (HMG-CoA reductase)	IC50 [1]	ED50 (sterol synthesis; [2])	further results
CC(C)n1c(/C=C/[C@@H](O)C[C@@H](O)CC(=O)O)c(-c2ccc(F)cc2)c2ccccc21 (relative stereo) [Example 8, Sodium erythro-(±)-(E)-3,5-dihydroxy-7-[3'-(4"-fluorophenyl)-1'-(1"-methylethyl)indol-2'-yl]hept-6-enoate]	–	0.05 µM	–	ED50 (sterol synthesis): 0.09 mg/kg
CC(C)n1c(/C=C/[C@H](O)C[C@@H](O)CC(=O)O)c(-c2ccc(F)cc2)c2ccccc21 (relative stereo) [Example 9, Sodium threo-(±)-(E)-3,5-dihydroxy-7-[3'-(4"-fluorophenyl)-1'-(1"-methylethyl)indol-2'-yl]hept-6-enoate]	–	0.22 µM	–	ED50 (sterol synthesis): 1.4 mg/kg
